# According to patent US20030082722A1, “Method for amplifying expression from a cell specific promoter” (priority 2001, published 2003):
# Where two headings read alike, the source gives them in different places.
# Key:
# 231/ADR = assay: IC50 of chemotherapeutic agents and Ad/gTRAIL, doxorubicin-resistant cells; type: cell-based, human; conditions: for IC50: Homo sapiens
# Protocol: Cell Lines and Reagents. […] Immortalized nontransformed breast epithelial cell lines MCF10A and MCF10F and normal human mammary epithelial cells (NHMEC) were purchased from Clonetics (San Diego, Calif.). […] Doxorubicin-resistant MDA-MB-231 cells were obtained through the stepwise exposure of the parental cells to doxorubicin. […] The residual surviving cells were then allowed to grow in fresh medium. When these residual cells reached 70-80% confluence in the plate, they were treated again with the same concentration of doxorubicin. After this cycle was repeated several times, the concentration of doxorubicin was increased multiple times followed by the regrowth of cells.
# Assays. Cell viability, flow cytometry, and Western blot analysis were performed as described in previous examples. […] For Western analysis anti-caspase-8 (R&D systems, Minneapolis, Minn.), anti-caspase-3 (BD PharMingen, San Diego, Calif.), anti-PARP (BD PharMingen), anti-GFP (Clontech Inc., Palo Alto, Calif.), and anti-hTRAIL (Alexis, San Diego, Calif.) antibodies were used.
# Statistical Analysis. Differences among the treatment groups were assessed as described in previous examples. Survival was assessed using the Kaplan-Meier method.
# MDA-MB-231 = assay: IC50 of chemotherapeutic agents and Ad/gTRAIL, parental cells; type: cell-based, human
# Protocol: Cell Lines and Reagents. Human breast cancer cell lines MCF7, MDA-MB-231, MDA-MB-453, and MDA-MB-468 were grown in RPMI 1640 medium supplemented with 10% heat-inactivated fetal bovine serum, and antibiotics, and glutamine. Immortalized nontransformed breast epithelial cell lines MCF10A and MCF10F and normal human mammary epithelial cells (NHMEC) were purchased from Clonetics (San Diego, Calif.). Primary normal human mammary epithelial cells (PNHMEC) isolated from normal breast tissue (Stampfer and Yaswen, 1994) were provided by Dr. Yinhua Yu (The University of Texas M. D. Anderson Cancer Center). Doxorubicin-resistant MDA-MB-231 cells were obtained through the stepwise exposure of the parental cells to doxorubicin. […] The residual surviving cells were then allowed to grow in fresh medium. When these residual cells reached 70-80% confluence in the plate, they were treated again with the same concentration of doxorubicin. After this cycle was repeated several times, the concentration of doxorubicin was increased multiple times followed by the regrowth of cells. […] Other agents used in these experiments included gemcitabine (Eli Lilly and Co., Indianapolis, Ind.), vinorelbine (Pierre Fabre, Idron 64320, France), paclitaxel (Bristol-Myers Squibb Co., Princeton, N.J.), irinotecan (Pharmacia & Upjohn Co., Kalamazoo, Mich.), floxuridine (Ben Venue Labs, Inc., Bedford, Ohio), and TRAIL protein (R & D Systems, Minneapolis, Minn.).
# Assays. Cell viability, flow cytometry, and Western blot analysis were performed as described in previous examples. See also Gu et al., 2000 and Kagawa et al., 2001. Biochemical analysis, using β-galactosidase was determined as dexcribed in Example 1. For Western analysis anti-caspase-8 (R&D systems, Minneapolis, Minn.), anti-caspase-3 (BD PharMingen, San Diego, Calif.), anti-PARP (BD PharMingen), anti-GFP (Clontech Inc., Palo Alto, Calif.), and anti-hTRAIL (Alexis, San Diego, Calif.) antibodies were used. Apoptosis in tumors was assessed by in situ TUNEL staining as decribed in Example 3.
# Statistical Analysis. Differences among the treatment groups were assessed as described in previous examples. Survival was assessed using the Kaplan-Meier method. The drug concentration that inhibited cells growth by 50% (IC50) was calculated by CurveExpert 1.3 software (Starkville, Miss.).
# [1] = tested on: lung metastasis derived from breast cancer cells 231/ADR; assay: Lung metastatic tumor model, aerosolized Ad/gTRAIL with paclitaxol; type: in vivo, nude mice; conditions: day 35 after starting treatment
# Protocol: The aerosol vector administration are the following: adenovirus of 1×10^12 particles was diluted in PBS to a final volume of Iml and was mixed with 500 μl (5 mg) of protamine. […] The complex was placed into the nebulizer chamber. The aerosol from the nebulizer was passed through a sealed plastic cage that housed the mice. The exposure required approximately 50 minutes, during which time the mice were allowed to move freely about the cage.
# DLD1/TRAIL-R = assay: Sensitizing TRAIL-resistant cells to Ad/gTRAIL by chemotherapeutic agents; conditions: Ad/gTRAIL 1000 viral particles/cell; 96 h
# Protocol: Chemotherapeutic agents concentrations are shown on the bottom of each graph. […] Cell viability was determined at 96 h after treatment. Levels are mean+/−SD of two quadruplet assays. […] Cells were treated with adenovector at 1000 moi (vp), 5-FU 50 μm and 1.25 μm MMC. In combination group, the dose were the same as the single agent group. Cells were harvested at 96 h after treatment and cell lysate was used for Western blot analysis.
# lung = assay: Reporter gene expression in lung after aerosolized vector; type: in vivo, mice; conditions: protamine 1 mg/ml, hydrocortisone 250 ng/ml
# Protocol: The aerosol vector administration are the following: adenovirus of 1×10^12 particles was diluted in PBS to a final volume of Iml and was mixed with 500 μl (5 mg) of protamine. The Protamine-adenovirus complex was mixed with 5 ml hydrocortisone (concentration of 250 ng/ml in H2O) after incubating 10 min at room temperature. The complex was placed into the nebulizer chamber. The aerosol from the nebulizer was passed through a sealed plastic cage that housed the mice. The exposure required approximately 50 minutes, during which time the mice were allowed to move freely about the cage.
# Treatment of lung metastasis by aerosolized vector administration was also tested. […] Subsequent aerosol administration of adenovectors will contain protamine and hydrocortisone in the vector solution.
# [2] = tested on: MDA-MB-231, MDA-MB-468, MDA-MB-453 and MCF7 cells; assay: Cell viability after recombinant TRAIL protein; type: cell-based, human
# Protocol: Cell Lines and Reagents. Human breast cancer cell lines MCF7, MDA-MB-231, MDA-MB-453, and MDA-MB-468 were grown in RPMI 1640 medium supplemented with 10% heat-inactivated fetal bovine serum, and antibiotics, and glutamine. Immortalized nontransformed breast epithelial cell lines MCF10A and MCF10F and normal human mammary epithelial cells (NHMEC) were purchased from Clonetics (San Diego, Calif.). Primary normal human mammary epithelial cells (PNHMEC) isolated from normal breast tissue (Stampfer and Yaswen, 1994) were provided by Dr. Yinhua Yu (The University of Texas M. D. Anderson Cancer Center). Doxorubicin-resistant MDA-MB-231 cells were obtained through the stepwise exposure of the parental cells to doxorubicin. In brief, the parental MDA-MB-231 cells were treated with doxorubicin (Ben Venue Labs, Inc., Bedford, Ohio) at concentration of 2 μM (1.16 μg/ml, which is the IC80 of MDA-MB-231 cells). Most cells were killed after day 4 of treatment. The residual surviving cells were then allowed to grow in fresh medium. When these residual cells reached 70-80% confluence in the plate, they were treated again with the same concentration of doxorubicin. […]
# To test whether these cells were similarly sensitive to soluble TRAIL protein, cells were treated with recombinant TRAIL protein at various concentrations up to 800 ng/ml. Cell viability was then determined at 24, 48, and 96 h after treatment. […]
# [3] = Homo sapiens, MDA-MB-231, read-out: IC50
# Source text for H1299 lung cancer cells: Construction of Ad/gBax. […] This bicistronic vector as modified combined the two expression cassettes of the Tet-Off system (BD Clontech, San Francisco, Calif., USA) into a single vector (FIG. 28). […] The second cassette contained the cDNA of the GFP/Bax fusion protein under the control of a compound promoter consisting of TRE and the minimal immediate early promoter of CMV. GFP was included to facilitate the selection of recombinant virus and the detection of expression products.
Molecule,IC50 (231/ADR),"IC50 (MDA-MB-231; Homo sapiens, MDA-MB-231)",sensitization of DLD1/TRAIL-R to Ad/gTRAIL (cell viability) (DLD1/TRAIL-R),other results
"CN(C)[C@@H]1C(O)=C(C(N)=O)C(=O)[C@@]2(O)C(O)=C3C(=O)c4c(O)cccc4[C@@](C)(O)[C@H]3C[C@@H]12 [Tc, tetracycline]",,,,concentration that started to inhibit GFP-Bax expression (H1299 lung cancer cells): 1 ng/mL
"CCc1c2c(nc3ccc(OC(=O)N4CCC(N5CCCCC5)CC4)cc13)-c1cc3c(c(=O)n1C2)COC(=O)[C@]3(O)CC [Irinotecan, irinotecan]",5940 nM,1540 nM,,
"CC(=O)O[C@H]1C(=O)[C@@]2(C)[C@H]([C@H](OC(=O)c3ccccc3)[C@]3(O)C[C@H](OC(=O)[C@H](O)[C@@H](NC(=O)c4ccccc4)c4ccccc4)C(C)=C1C3(C)C)[C@]1(OC(C)=O)CO[C@@H]1C[C@@H]2O [Paclitexol, paclitaxel]",16.9 nM,3.46 nM,,numbers of tumor nodules in the lung [1]: dramatically reduced the numbers of tumor nodules
O=c1[nH]cc(F)c(=O)[nH]1 [fluorouracil],,,can sensitize DLD1/TRAIL-R to Ad/gTRAIL at certain concentrations,
"COc1cccc2c1C(=O)c1c(O)c3c(c(O)c1C2=O)C[C@@](O)(C(=O)CO)C[C@@H]3O[C@H]1C[C@H](N)[C@H](O)[C@H](C)O1 [Doxorubicin, doxorubicin]",97600 nM,1140 nM,can sensitize DLD1/TRAIL-R to Ad/gTRAIL at certain concentrations,"susceptibility to doxorubicin (231/ADR; 16 μM): resistant; IC80 (MDA-MB-231; Homo sapiens, MDA-MB-231): 2000 nM; susceptibility to doxorubicin (MDA-MB-231; parental MDA-MB-231, 2 μM): susceptible"
protamine,,,,reporter gene LacZ expression in lung (lung): dramatically increased
"Nc1ccn([C@@H]2O[C@H](CO)[C@@H](O)C2(F)F)c(=O)n1 [Gemcitabine, gemcitabine]",37 nM,,,IC50 (MDA-MB-231; [3]): 18.6 nM
"CCC1=C[C@@H]2CN(C1)Cc1c([nH]c3ccccc13)[C@@](C(=O)OC)(c1cc3c(cc1OC)N(C)[C@H]1[C@@](O)(C(=O)OC)[C@H](OC(C)=O)[C@]4(CC)C=CCN5CC[C@]31[C@@H]54)C2 [Vinorelbine, vinorelbine]",22.9 nM,,,IC50 (MDA-MB-231; [3]): 2.4 nM
CO[C@@]12[C@H](COC(N)=O)C3=C(C(=O)C(C)=C(N)C3=O)N1C[C@@H]1N[C@@H]12 [mutamycin],,,can sensitize DLD1/TRAIL-R to Ad/gTRAIL at certain concentrations,
C[C@]12CCC(=O)C=C1CC[C@@H]1[C@@H]2[C@@H](O)C[C@@]2(C)[C@H]1CC[C@]2(O)C(=O)CO [hydrocortisone],,,,reporter gene LacZ expression in lung (lung): dramatically increased
"O=c1[nH]c(=O)n([C@H]2C[C@H](O)[C@@H](CO)O2)cc1F [Floxuridine, floxuridine]",4700 nM,100 nM,can be sensitized to Ad/gTRAIL,
"TRAIL protein: recombinant soluble TRAIL protein (R & D Systems) (protein, UniProt P50591 39-281, looked up, extracellular domain recombinant soluble) extracellular domain: TNELKQMQDKYSKSGIACFLKEDDSYWDPNDEESMNSPCWQVKWQLRQLVRKMILRTSEETISTVQEKQQNISPLVRERGPQRVAAHITGTRGRSNTLSSPNSKNEKALGRKINSWESSRSGHSFLSNLHLRNGELVIHEKGFYYIYSQTYFRFQEEIKENTKNDKQMVQYIYKYTSYPDPILLMKSARNSCWSKDAEYGLYSIYQGGIFELKENDRIFVSVTNEHLIDMDHEASFFGAFLVG",,,,"sensitivity to TRAIL protein (cell viability) ([2]; MDA-MB-231 and MDA-MB-468, up to 800 ng/ml, 24, 48, 96 h): sensitive; sensitivity to TRAIL protein (cell viability) ([2]; MDA-MB-453 and MCF7, 800 ng/ml): resistant"
